# Measured values reported in patent US9504676B2, “Molecules inhibiting a metabolic pathway involving the Syk protein tyrosine kinase and method for identifying said molecules” (CENTRE NATIONAL DE LA RECHERCHE SCIENTIFIQUE, priority 2008, dated 2016).
# Legend:
# Akt = experiment: Phosphorylation of Akt (PI3K activity marker, Fyn-dependent cascade); format: cell-based; conditions: RBL-2H3 cells and BMMCs
# Protocol: In mast cells, the signalling cascade Fyn/Gab2/PI3K gives rise to the activation of PI3K and the generation of PI-3,4,5-P3 recruiting a number of proteins containing a pleckstrin homology domain (PH), including Btk and PLC-γ on the plasma membrane^19.
# • 1) Chemical products and antibodies. A chemical bank of 3000 molecules (a varied subset) was acquired from ChemBridge, Inc. (San Diego, Calif.). Stocks of solutions of small molecules were prepared at a rate of 10 mM in DMSO (dimethylsulphoxide), except for C-13 (methyl 2-{5-[(3-benzyl-4-oxo-2-thioxo-1,3-thiazolidin-5-ylidene)methyl]-2-furyl}benzoate, ChemBridge ID No. 6197026) prepared in DMF (dimethylformamide). Unless specified otherwise, all the reagents were supplied by Sigma. […] The binding of G4G11 with Syk was assessed by adding the 9E10 monoclonal antibody conjugated with HRP detecting the amino acid sequence EQKLISEEDLN of human c-myc protein located at the C-terminal end of the scFv fragment. To generate Syk mutants, targeted mutagenesis was used on GST:Syk 6-242 protein and the binding of G4G11 with the mutants was assessed in the presence of 5 μM of C-13. • 3) Cells, culture conditions and functional tests. […] The level of β-hexosaminidase released was measured 10 min later and the TNF-α titration was performed by means of a cytotoxicity test on L929 cells as described previously^10, 3 hours after stimulation. […]
# [1] = Observation of toxicity after administration to animals; format: in vivo, BALB/c mice
# Excerpt: The pharmaceutical molecule screening approach described herein represents a generic platform wherein the initial use of antibodies makes it possible to detect the domains of the target molecule having a therapeutic potential, thus facilitating the design of chemical molecules (via in silico and/or in vitro screening) capable acting as functional antibody mimics and as potential protein-protein interaction inhibitors.
# Finally, to extend these observations to mast cell functions in vivo, the inventors tested the effects of C-13 on passive systemic (PSA) and cutaneous anaphylaxis (PCA) induced in BALB/c mice by administering DNP-specific IgE molecules followed by intravenous stimulation with DNP-KLH hapten. […] The intensity of systemic anaphylaxis was determined by measuring both the drop in body temperature and the increase in vascular permeability following antigen administration.
smiles,measurement,setting,value
"COC(=O)c1ccccc1-c1ccc(/C=C2/SC(=S)N(Cc3ccccc3)C2=O)o1 [Molecule C-13, methyl 2-{5-[(3-benzyl-4-oxo-2-thioxo-1,3-thiazolidin-5-ylidene)methyl]-2-furyl}benzoate]",Fyn-dependent cascade (phosphorylation of Akt),Akt,did not affect
same,signs of toxicity in the animals,"[1]; after oral administration, prior to antigen stimulation",no obvious sign of toxicity
same,apparent toxic effect,"[1]; oral or local administration, one hour to 12 days",lack of an apparent toxic effect
